Experimental findings from ChEMBL document CHEMBL2331489, “Novel cinnoline-based inhibitors of LRRK2 kinase activity” (Bioorg Med Chem Lett, 2013) are described below.

For assay [1], the target named is Leucine-rich repeat serine/threonine-protein kinase 2 (Homo sapiens, UniProt Q5S007). Description: Inhibition of LRRK2 (unknown origin) at 10 uM relative to control.
Assay [2] deals with RAC-alpha serine/threonine-protein kinase (Homo sapiens) (UniProt P31749). The assay is described as follows: Inhibition of AKT1 (unknown origin) at 10 uM relative to control.
In assay [3] the target is T1, Aurora kinase A (Homo sapiens) (UniProt O14965).
T1 sequence (whole entry): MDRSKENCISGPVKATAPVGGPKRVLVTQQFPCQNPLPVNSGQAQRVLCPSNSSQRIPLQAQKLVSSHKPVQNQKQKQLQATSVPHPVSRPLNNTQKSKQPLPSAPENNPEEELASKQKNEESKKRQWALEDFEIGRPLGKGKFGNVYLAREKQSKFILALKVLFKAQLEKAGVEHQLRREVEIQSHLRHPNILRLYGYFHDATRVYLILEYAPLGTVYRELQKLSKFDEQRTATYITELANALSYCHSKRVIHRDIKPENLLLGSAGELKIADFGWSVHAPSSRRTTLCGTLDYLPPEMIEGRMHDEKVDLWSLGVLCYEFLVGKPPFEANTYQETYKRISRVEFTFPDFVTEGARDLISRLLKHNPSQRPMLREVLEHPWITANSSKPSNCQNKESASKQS
Description: Inhibition of Aurora A (unknown origin) at 10 uM relative to control.

Assay [4] has as its target Insulin receptor (Homo sapiens) (UniProt P06213). Description: Inhibition of INSR (unknown origin) at 10 uM relative to control.
Assay [5] has as its target Dual specificity protein kinase CLK1 (Homo sapiens) (UniProt P49759). The assay is described as follows: Inhibition of CLK1 (unknown origin) at 10 uM relative to control.
Assay [6] has as its target Serine/threonine-protein kinase PAK 4 (Homo sapiens) (UniProt O96013). Description: Inhibition of PAK4 (unknown origin) at 10 uM relative to control.
The target in assay [7] is Mitogen-activated protein kinase 10 (Homo sapiens) (UniProt P53779). Description: Inhibition of MAPK10 (unknown origin) at 10 uM relative to control.
Assay [8] concerns the target Dual specificity tyrosine-phosphorylation-regulated kinase 1B (Homo sapiens) (UniProt Q9Y463). Description: Inhibition of DYRK1B (unknown origin) at 10 uM relative to control.
For assay [9], the target named is Receptor tyrosine-protein kinase erbB-4 (Homo sapiens) (UniProt Q15303). The assay is described as follows: Inhibition of ERBB4 (unknown origin) at 10 uM relative to control.
Sequence of Receptor tyrosine-protein kinase erbB-4 (Homo sapiens) (Q15303 whole entry): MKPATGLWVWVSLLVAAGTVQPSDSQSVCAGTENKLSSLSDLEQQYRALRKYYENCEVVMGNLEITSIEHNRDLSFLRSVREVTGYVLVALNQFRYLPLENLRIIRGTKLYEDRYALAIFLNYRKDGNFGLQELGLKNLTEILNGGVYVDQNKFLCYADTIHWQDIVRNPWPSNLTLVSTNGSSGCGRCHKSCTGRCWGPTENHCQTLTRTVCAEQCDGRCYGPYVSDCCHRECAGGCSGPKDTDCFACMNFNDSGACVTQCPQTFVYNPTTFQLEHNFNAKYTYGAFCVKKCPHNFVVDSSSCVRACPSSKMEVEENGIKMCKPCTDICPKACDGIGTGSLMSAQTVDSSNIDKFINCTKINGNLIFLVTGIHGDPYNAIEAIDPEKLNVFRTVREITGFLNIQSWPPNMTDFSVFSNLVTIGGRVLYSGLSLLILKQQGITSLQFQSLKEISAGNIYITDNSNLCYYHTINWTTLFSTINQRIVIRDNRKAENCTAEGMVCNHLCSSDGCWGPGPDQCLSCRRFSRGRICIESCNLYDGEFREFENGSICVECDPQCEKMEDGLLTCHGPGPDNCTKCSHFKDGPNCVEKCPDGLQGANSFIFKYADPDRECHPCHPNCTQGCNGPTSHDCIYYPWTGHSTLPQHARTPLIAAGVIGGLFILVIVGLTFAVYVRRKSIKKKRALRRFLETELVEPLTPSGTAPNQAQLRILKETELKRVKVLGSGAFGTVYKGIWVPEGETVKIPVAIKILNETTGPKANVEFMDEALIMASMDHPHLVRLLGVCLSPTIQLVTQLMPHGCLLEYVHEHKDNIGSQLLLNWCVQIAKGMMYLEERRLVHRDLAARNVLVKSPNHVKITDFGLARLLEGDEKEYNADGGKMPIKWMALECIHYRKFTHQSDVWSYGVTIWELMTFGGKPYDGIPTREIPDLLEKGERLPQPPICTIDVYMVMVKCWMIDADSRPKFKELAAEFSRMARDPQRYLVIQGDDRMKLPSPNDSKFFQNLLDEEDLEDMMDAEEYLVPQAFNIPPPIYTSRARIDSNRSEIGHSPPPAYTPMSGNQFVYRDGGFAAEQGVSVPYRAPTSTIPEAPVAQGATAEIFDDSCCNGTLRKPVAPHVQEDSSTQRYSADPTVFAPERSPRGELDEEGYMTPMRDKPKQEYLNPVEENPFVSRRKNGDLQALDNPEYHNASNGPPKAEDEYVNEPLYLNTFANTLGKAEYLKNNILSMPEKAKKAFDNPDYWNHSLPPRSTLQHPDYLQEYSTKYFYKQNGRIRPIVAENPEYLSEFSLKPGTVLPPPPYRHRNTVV
The target in assay [10] is Glycogen synthase kinase-3 beta (Homo sapiens) (UniProt P49841). The assay is described as follows: Inhibition of GSK3beta (unknown origin) at 10 uM relative to control.
Assay [11] deals with Tyrosine-protein kinase Lck (Homo sapiens) (UniProt P06239). The assay is described as follows: Inhibition of LCK (unknown origin) at 10 uM relative to control.
Assay [12] addresses PI3-kinase p110-alpha/p85-alpha (Homo sapiens) (UniProt P27986+P42336). Description: Inhibition of PIK3CA/PIK3R1 (unknown origin) at 10 uM relative to control. It counts as protein-complex assay.
Assay [13] concerns the target Platelet-derived growth factor receptor alpha (Homo sapiens, UniProt P16234). The assay is described as follows: Inhibition of PDGFRalpha (unknown origin) at 10 uM relative to control.
Assay [14] has as its target Cyclin-dependent kinase 5/CDK5 activator 1 (Homo sapiens) (UniProt Q00535+Q15078). The assay is described as follows: Inhibition of CDK5/P25 (unknown origin) at 10 uM relative to control. It counts as protein-complex assay.
In assay [15] the target is Receptor-type tyrosine-protein kinase FLT3 (Homo sapiens) (UniProt P36888). The assay is described as follows: Inhibition of FLT3 (unknown origin) at 10 uM relative to control.
Sequence of Receptor-type tyrosine-protein kinase FLT3 (Homo sapiens) (P36888 whole entry): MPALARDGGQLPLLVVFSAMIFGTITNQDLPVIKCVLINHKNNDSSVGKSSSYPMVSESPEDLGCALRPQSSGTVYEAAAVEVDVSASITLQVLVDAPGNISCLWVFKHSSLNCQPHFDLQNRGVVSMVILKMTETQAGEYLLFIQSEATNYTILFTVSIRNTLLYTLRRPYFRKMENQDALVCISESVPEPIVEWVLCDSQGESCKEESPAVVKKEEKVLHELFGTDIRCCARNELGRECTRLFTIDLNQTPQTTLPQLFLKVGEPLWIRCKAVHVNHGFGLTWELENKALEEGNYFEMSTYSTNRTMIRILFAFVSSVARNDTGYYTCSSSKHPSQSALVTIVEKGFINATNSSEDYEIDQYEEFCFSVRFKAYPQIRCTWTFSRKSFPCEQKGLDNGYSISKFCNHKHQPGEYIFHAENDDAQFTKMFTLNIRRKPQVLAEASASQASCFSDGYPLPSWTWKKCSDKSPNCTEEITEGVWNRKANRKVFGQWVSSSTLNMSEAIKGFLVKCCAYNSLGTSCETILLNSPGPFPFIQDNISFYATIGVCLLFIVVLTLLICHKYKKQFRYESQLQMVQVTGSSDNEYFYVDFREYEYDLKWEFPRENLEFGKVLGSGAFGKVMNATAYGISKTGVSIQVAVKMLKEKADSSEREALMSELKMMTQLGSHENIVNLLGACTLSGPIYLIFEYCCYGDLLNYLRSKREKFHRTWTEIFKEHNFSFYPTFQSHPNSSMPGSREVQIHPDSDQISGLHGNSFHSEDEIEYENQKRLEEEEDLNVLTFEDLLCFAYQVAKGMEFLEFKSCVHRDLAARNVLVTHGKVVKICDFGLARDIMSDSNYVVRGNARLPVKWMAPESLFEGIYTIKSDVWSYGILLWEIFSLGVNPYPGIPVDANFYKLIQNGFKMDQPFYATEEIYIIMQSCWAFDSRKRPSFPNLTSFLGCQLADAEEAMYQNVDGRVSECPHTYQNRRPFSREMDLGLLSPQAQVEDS
The target of assay [16] is RAF proto-oncogene serine/threonine-protein kinase (Homo sapiens) (UniProt P04049). Description: Inhibition of RAF1 (unknown origin) at 10 uM relative to control.
Assay [17] addresses cAMP-dependent protein kinase catalytic subunit alpha (Homo sapiens) (UniProt P17612). The assay is described as follows: Inhibition of PRKACA (unknown origin) at 10 uM relative to control.
Assay [18] concerns the target Tyrosine-protein kinase ABL1 (Homo sapiens) (UniProt P00519). Description: Inhibition of ABL1 (unknown origin) at 10 uM relative to control.
In assay [19] the target is Calcium/calmodulin-dependent protein kinase type II subunit alpha (Homo sapiens) (UniProt Q9UQM7). Description: Inhibition of CAMK2alpha (unknown origin) at 10 uM relative to control.
The target of assay [20] is Rho-associated protein kinase 2 (Homo sapiens) (UniProt O75116). The assay is described as follows: Inhibition of ROCK2 (unknown origin) at 10 uM relative to control.
Sequence of Rho-associated protein kinase 2 (Homo sapiens) (O75116 whole entry, looked up): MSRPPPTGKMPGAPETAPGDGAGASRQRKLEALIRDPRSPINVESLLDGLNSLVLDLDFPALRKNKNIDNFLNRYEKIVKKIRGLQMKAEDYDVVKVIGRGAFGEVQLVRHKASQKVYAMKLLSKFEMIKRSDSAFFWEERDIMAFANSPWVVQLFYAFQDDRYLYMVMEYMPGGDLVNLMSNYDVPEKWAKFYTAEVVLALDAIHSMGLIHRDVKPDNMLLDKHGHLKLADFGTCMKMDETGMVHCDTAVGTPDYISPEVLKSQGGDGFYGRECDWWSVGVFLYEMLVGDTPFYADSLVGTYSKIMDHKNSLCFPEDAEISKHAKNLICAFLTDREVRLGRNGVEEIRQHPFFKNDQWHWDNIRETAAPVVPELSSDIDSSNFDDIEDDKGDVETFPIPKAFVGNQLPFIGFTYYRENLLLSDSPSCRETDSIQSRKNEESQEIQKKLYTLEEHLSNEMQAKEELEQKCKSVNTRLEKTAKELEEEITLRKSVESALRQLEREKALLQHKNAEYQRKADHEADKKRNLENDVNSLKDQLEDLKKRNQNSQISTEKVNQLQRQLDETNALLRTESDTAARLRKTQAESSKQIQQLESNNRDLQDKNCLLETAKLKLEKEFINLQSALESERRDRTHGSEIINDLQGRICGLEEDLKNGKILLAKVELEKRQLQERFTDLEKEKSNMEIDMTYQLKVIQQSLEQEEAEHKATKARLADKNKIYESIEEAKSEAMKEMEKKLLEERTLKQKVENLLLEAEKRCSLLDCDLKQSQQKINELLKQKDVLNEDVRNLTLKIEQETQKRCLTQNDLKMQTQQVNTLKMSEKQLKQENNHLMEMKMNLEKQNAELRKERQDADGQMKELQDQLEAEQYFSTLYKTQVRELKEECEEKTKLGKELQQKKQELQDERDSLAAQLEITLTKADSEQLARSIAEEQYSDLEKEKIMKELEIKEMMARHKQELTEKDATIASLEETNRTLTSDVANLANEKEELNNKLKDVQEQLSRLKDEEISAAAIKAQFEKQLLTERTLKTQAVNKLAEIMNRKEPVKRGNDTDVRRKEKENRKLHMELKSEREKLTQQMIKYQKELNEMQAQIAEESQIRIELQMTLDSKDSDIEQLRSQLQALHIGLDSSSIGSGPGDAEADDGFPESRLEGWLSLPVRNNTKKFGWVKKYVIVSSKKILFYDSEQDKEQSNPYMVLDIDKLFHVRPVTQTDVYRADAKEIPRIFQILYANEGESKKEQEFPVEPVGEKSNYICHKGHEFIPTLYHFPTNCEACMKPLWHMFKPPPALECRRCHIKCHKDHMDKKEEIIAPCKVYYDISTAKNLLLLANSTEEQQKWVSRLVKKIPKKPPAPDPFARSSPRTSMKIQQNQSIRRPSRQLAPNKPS
The target in assay [21] is Serine/threonine-protein kinase PLK1 (Homo sapiens) (UniProt P53350). Description: Inhibition of PLK1 (unknown origin) at 10 uM relative to control.
The target in assay [22] is Proto-oncogene tyrosine-protein kinase receptor Ret (Homo sapiens) (UniProt P07949). The assay is described as follows: Inhibition of RET (unknown origin) at 10 uM relative to control.
The target in assay [23] is T2, Serine/threonine-protein kinase Chk1 (Homo sapiens) (UniProt O14757).
T2 sequence (whole entry): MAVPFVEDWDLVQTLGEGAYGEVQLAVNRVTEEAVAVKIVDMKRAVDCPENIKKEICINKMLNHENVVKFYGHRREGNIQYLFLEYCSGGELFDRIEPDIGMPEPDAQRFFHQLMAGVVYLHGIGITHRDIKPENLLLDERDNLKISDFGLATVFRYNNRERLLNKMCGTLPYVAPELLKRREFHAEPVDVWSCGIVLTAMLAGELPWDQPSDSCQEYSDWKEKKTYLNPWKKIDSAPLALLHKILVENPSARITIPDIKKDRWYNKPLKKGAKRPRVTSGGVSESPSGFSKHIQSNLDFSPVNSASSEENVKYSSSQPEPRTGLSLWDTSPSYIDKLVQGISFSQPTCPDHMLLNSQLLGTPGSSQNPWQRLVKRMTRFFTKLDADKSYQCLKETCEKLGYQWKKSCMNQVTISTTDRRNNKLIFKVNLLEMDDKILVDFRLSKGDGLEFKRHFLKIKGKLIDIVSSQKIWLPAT
The assay is described as follows: Inhibition of CHK1 (unknown origin) at 10 uM relative to control.

Sequence of Insulin receptor (Homo sapiens) (P06213 28-758 limits assumed): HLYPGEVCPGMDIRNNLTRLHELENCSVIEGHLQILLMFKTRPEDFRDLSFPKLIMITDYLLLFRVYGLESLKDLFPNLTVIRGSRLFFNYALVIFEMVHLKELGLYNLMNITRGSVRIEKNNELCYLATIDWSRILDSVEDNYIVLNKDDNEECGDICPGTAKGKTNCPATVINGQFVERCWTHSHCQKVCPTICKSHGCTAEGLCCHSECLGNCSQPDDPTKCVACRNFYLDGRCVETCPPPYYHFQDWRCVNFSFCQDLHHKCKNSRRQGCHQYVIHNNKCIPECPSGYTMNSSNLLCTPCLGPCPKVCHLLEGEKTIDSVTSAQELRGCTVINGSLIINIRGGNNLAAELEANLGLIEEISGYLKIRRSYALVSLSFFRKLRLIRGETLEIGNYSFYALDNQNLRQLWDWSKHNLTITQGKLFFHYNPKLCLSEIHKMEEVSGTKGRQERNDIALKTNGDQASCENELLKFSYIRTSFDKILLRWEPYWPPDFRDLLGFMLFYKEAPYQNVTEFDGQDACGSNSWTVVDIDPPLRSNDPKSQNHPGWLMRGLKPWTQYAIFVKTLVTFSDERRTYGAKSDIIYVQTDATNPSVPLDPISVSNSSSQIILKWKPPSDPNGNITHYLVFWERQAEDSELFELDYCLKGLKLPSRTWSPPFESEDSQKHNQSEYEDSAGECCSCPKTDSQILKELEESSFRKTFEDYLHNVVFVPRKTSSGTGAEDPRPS
Sequence of Insulin receptor (Homo sapiens) (P06213 763-1382 limits assumed): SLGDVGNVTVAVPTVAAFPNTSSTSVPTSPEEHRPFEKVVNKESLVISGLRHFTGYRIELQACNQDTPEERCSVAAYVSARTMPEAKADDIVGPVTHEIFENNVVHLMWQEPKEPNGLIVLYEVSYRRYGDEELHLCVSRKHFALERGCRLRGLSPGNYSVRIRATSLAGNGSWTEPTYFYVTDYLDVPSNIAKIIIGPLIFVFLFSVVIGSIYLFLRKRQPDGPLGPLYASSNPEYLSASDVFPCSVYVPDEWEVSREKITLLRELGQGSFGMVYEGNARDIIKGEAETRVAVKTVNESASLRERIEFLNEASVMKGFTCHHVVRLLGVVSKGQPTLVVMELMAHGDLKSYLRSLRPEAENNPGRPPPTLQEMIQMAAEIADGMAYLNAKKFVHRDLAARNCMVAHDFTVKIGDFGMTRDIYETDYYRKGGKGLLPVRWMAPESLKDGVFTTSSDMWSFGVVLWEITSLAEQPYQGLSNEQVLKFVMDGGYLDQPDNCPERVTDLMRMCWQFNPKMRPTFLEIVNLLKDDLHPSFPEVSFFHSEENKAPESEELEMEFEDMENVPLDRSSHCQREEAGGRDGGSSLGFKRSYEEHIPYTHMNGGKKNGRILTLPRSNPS

On to `CS(=O)(=O)c1ccc(-c2ccc3c(NC4CCC4)c(C(N)=O)nnc3c2)cc1`, for which the inhibition was 97% in assay [1]; 5% in assay [2]; 34% in assay [3]; 7% in assay [4]; 14% in [5]; 43% in assay [6]. Moreover, the inhibition turned out to be 21% in assay [7]; 20% in [8]; 4% in assay [9]; 17% in assay [10]; 35% in assay [11]; 2% in assay [12]. The inhibition is 94% in [13]; -1% in [14]; 72% in assay [15]; 38% in assay [16]; 0% in assay [17]; 46% in assay [18]. For the same molecule, the inhibition in [19] stood at 11%; in assay [20], 53%; in assay [21], 14%; in assay [22] it was 62%; in assay [23], 82%.

Regarding `C[C@@H](Nc1c(C(N)=O)nnc2cc(-c3ccc(S(C)(=O)=O)cc3)ccc12)C1CC1`, the inhibition in [1] is 97%; in assay [2] it was 4%; in assay [3], 68%; in assay [4] it was 0%; in assay [5] it was 5%; in assay [6], 33%. The inhibition stood at 21% in assay [7]; 3% in assay [8]; 12% in assay [9]; 29% in assay [10]; 81% in assay [11]; 10% in assay [12]. Besides, the inhibition in assay [13] was 93%; in [15] it was 80%; in assay [16], 21%; in assay [17], -1%; in assay [18] it was 68%; in assay [19], 15%. Also, the inhibition worked out at 70% in assay [20], 1% in assay [21], 57% in assay [22] and 54% in assay [23].

With `CC(C)Nc1c(C(N)=O)cnc2cc(-c3ccc(S(C)(=O)=O)cc3)ccc12`, the inhibition in assay [1] amounted to 96%; in assay [2] it was 5%; in assay [3], 60%; in [4] it was 4%; in assay [5], 2%; in [6], 64%. The inhibition in assay [7] is 4%; in assay [8], 9%; in [9] it was 11%; in assay [10], 6%; in [11] it was 31%; in assay [12], -2%. Also, the inhibition turned out to be 98% in assay [13]; 2% in assay [14]; 75% in assay [15]; 17% in assay [16]; 6% in assay [17]; 50% in assay [18]. Besides, the inhibition in assay [19] is 0%; in assay [20], 86%; in assay [21], 1%; in assay [22] it was 73%; in [23], 72%.

Regarding `CC(C)Nc1c(C(N)=O)nnc2cc(-c3ccncc3)ccc12`, the inhibition in assay [2] was 13%; in [3] it was 90%; in [4] it was 33%; in assay [5] it was 60%; in assay [6] it was 82%; in [7] it was 81%. Also, the inhibition in assay [8] was found to be 44%; in assay [9], 22%; in [10] it was 88%; in assay [11] it was 85%; in assay [12], 70%; in [14], 32%. In addition, the inhibition in assay [15] came out at 96%; in assay [16], 61%; in assay [17], 29%; in [18], 91%; in [19], 14%; in assay [20], 97%. For the same molecule, the inhibition in [21] is 33%; in assay [22], 96%; in assay [23], 95%.

Take `CC(C)Nc1c(C(N)=O)nnc2ccc(-c3cn[nH]c3)cc12`: the inhibition in assay [1] turned out to be 96%; in assay [2], 32%; in assay [3], 100%; in [4], 39%; in assay [5] it was 101%; in [6], 81%. For the same molecule, the inhibition in assay [7] was found to be 93%; in assay [8], 97%; in [9] it was 38%; in [10] it was 95%; in assay [11], 94%; in assay [12] it was 95%. The inhibition in assay [13] is 101%; in assay [14], 97%; in assay [15] it was 101%; in [16] it was 88%; in assay [17], 53%; in assay [18], 97%. Also, the inhibition in assay [19] amounted to 92%; in assay [20], 99%; in assay [21], 45%; in assay [22], 99%; in assay [23], 78%.

For `CC(C)Nc1c(C(N)=O)nnc2ccc(-c3ccncc3)cc12`, the inhibition in assay [1] turned out to be 95%; in [2], 25%; in [3] it was 83%; in [4] it was 13%; in assay [5], 103%; in assay [6], 58%. The inhibition is 88% in assay [7]; 97% in assay [8]; 21% in assay [9]; 94% in assay [10]; 90% in [11]; 94% in assay [12]. In addition, the inhibition was determined as 100% in assay [13]; 82% in assay [14]; 102% in [15]; 93% in [16]; 43% in assay [17]; 97% in assay [18]. The inhibition in assay [19] was determined as 77%; in [20], 88%; in [21], 25%; in assay [22], 93%; in assay [23], 66%.
